Here are results for 5 compounds from patent US20050130237A1, “High throughput screening method for compounds with non-, pro-, or anti-apoptotic or proliferative or necrotic activity” (priority 2002, published 2005).

Peptide text beside a SMILES is read from it. * marks the point of attachment. Cbz = O=C(OCc1ccccc1)*; CH2F = FC*

Holding throughout (format): cell-based, human
Assay [1] has as its system HeLa cells. Nature of the assay: Primary screening: overall EGFP relative fluorescence activity per well, fluorescence microplate reader, 96-well plates. As to conditions: values under 0.8 = pro-apoptotic and/or necrotic. The source says: A representative primary screening with standard experimental set-up, where 16 commercially available anti-cancer drugs have been tested on five different EGFP expressing cell lines (HeLa, KB, A20, Ramos and Jurkat) in 96-well microtiter plates is shown in FIG. 2. Differential susceptibility regarding induction of apoptosis and/or necrosis after treatement with 5-Fluorouracil (5-FU), Gemzar, Methotrexate, Eloxantin, Detimedac, Endoxan, Paraplatin, Navelbine, Velbe, Taxotere, Taxol, Adriblastin, Bleomycin, Campto, Etopophos and Farmorubicin is shown. Measurements after 24 h and 48 h were performed with a fluorescence microplate reader, which measures the overall fluorescence activity in a single well. Used compound concentrations are indicated by a fraction of the original concentration.
The setting of a cut-off value, corresponding to 0.8 in this case, allows the clear discrimination between two main groups of different activities. […] According to these intermediate values between 0 and 0.8 measured by a fluorescence microplate reader, it can hardly be discriminated between the subpopulations of apoptotic and necrotic cells within the same well. […]
Immediately after the addition of the compounds to the cells the zero fluorescence value (t=0 h) was determined by using a fluorescence microplate reader in order to be able to normalize the fluorescence activities. […]

Assay [2] has as its system HeLa cells. Nature of the assay: Secondary screening: FACS analysis discriminating apoptotic and necrotic activity of anti-cancer drugs. As to conditions: for necrotic activity (FACS histograms): necrosis evident after exposure longer than 24 h, followed up to 48 h, Navelbine, Velbe, Campto 1/1000 diluted, Adriblastin 1/2000 diluted. The source says:
For this purpose HeLa cells have been treated with typical anti-cancer drugs of different mode of actions. Navelbine and Velbe, two typical representatives of microtubules interfering drugs and Adriblastin and Campto, topo-isomerase inhibitors, which interfere with DNA synthesis.
Arrows indicate regions with either necrotic cells (left arrow) or apoptotic cells (middle arrow) or proliferating/living cells (right arrow). […] This fact became evident after exposure of the cells for longer than 24 h.
HeLa cells have been treated with typical anti-cancer drugs of different mode of actions. Navelbine and Velbe, two typical representatives of microtubules interfering drugs and Adriblastin and Campto, topo-isomerase inhibitor, which interfere with DNA synthesis. Histograms of FACS analysis of cells treated either with Navelbine (1/1000 diluted), Velbe (1/1000 diluted), Adriblastin (1/2000 diluted) and Campto (1/1000 diluted) are shown in FIG. 4. Arrows indicate regions with either necrotic cells (left arrow), apoptotic cells (middle arrow) and proliferating cells (right arrow). […] This fact became evident after exposure of the cells for longer than 24 h.

The test system of assay [3] is JurkatGFP cells. In words: Anti-apoptotic activity after induction of apoptosis by serially diluted soluble FasL, fluorescence microplate reader. As to conditions: 24 h incubation, compared with control peptide zFA. The source says: The activity of an anti-apoptotic compound, e.g. the pan caspase inhibitor zVADfmk, has been tested on JurkatGFP cells after induction of apoptosis by serially diluted soluble FasL and measured by a fluorescence microplate reader. […] The bars indicate standard deviations, which have been determined by measuring 6 single values for each datapoint.

`COc1cccc2c1C(=O)c1c(O)c3c(c(O)c1C2=O)C[C@@](O)(C(=O)CO)C[C@@H]3O[C@H]1C[C@H](N)[C@H](O)[C@H](C)O1` [Adriblastin]: in assay [1] (highest concentration 1/5 k of original concentration), the “relative fluorescence activity (intermediate value, cut-off 0.8)” value is recorded as 0.53. In addition, the “necrotic activity (FACS histograms)” value in assay [2] is listed as “do not show any tendency for necrotic activity”. Moreover, the “apoptotic activity (FACS histograms)” value in assay [2] (single-cell flow cytometry) is on record as “only induce apoptosis”.
Take `CCc1c2c(nc3ccc(OC(=O)N4CCC(N5CCCCC5)CC4)cc13)-c1cc3c(c(=O)n1C2)COC(=O)[C@]3(O)CC` [Campto]: the “necrotic activity (FACS histograms)” value in assay [2] is recorded as “do not show any tendency for necrotic activity”.
Consider `CCC1=C[C@@H]2CN(C1)Cc1c([nH]c3ccccc13)[C@@](C(=O)OC)(c1cc3c(cc1OC)N(C)[C@H]1[C@@](O)(C(=O)OC)[C@H](OC(C)=O)[C@]4(CC)C=CCN5CC[C@]31[C@@H]54)C2` [Navelbine], for which the “relative fluorescence activity (intermediate value, cut-off 0.8)” value in assay [1] (highest concentration 1/10 k of original concentration) was 0.49. Further, the “necrotic activity (FACS histograms)” value in assay [2] is recorded as “strong tendency to induce necrosis”.
For `CC[C@]1(O)C[C@@H]2CN(CCc3c([nH]c4ccccc34)[C@@](C(=O)OC)(c3cc4c(cc3OC)N(C)[C@H]3[C@@](O)(C(=O)OC)[C@H](OC(C)=O)[C@]5(CC)C=CCN6CC[C@]43[C@@H]65)C2)C1` [Velbe], the “necrotic activity (FACS histograms)” value in assay [2] is listed as “strong tendency to induce necrosis”.
Take `COC(=O)C[C@H](NC(=O)[C@H](C)NC(=O)[C@@H](NC(=O)OCc1ccccc1)C(C)C)C(=O)CF` [zVAD] (Cbz-Val-Ala-Asp(OMe)-CH2F): the “anti-apoptotic effect on the apoptotic activity of FasL” value in assay [3] is listed as “clear inhibitory anti-apoptotic effect”.
